Common to all, as to assay: microbe, parasite or virus in culture
The test system of one test is B/Shandong/7/97. The class given is cell-based. The conditions noted are these: for IC50: Influenza B virus, 72 h, read-out: concentration of the compound necessary to reduce the plaques number to 50% against the control.
The subject of the next test is A/Panama/2007/99-H3N2. Type of test: cell-based, influenza virus type A. The conditions noted are these: for IC50: Influenza A virus, H3N2, MDCK, 72 h, read-out: concentration of the compound necessary to reduce the plaques number to 50% against the control.
For test [1], the system named is A/NewCaledonia/20/99-H1N1. Type of test: cell-based, influenza virus type A. The conditions noted are these: for IC50: Influenza A virus, H1N1, MDCK, 72 h, read-out: concentration of the compound necessary to reduce the plaques number to 50% against the control.
Setting [2] is: MDCK cells, about 50 PFU/ml, 3 days, tested 0.01-100 μM, duplicate.

Like-named read-outs stand apart in the source and are kept apart here. A value given as a limit tells only on which side of the number the result lay.

As for `CC12CC3CC(C)(C1)CC(N)(C3)C2` [Memantine, memantine, reference compound], the IC50 (in the test on B/Shandong/7/97 (setting [2]); in the test on A/Panama/2007/99-H3N2; in test [1]) was 100 µM each time.

With `CC(=O)NC1C(O)CC(O)(C(=O)O)OC1CNC12CC3CC(CC(C3)C1)C2` (stereo not shown) [Compound 1], the values for the IC50 (in the test with B/Shandong/7/97 (setting [2]); with A/Panama/2007/99-H3N2; in test [1]) were 10 µM, 10 µM and 1 µM, respectively. In test [1], the “antiviral activity relative to amantadine (fold less)” value stood at 10 fold.

As to `NC12CC3CC(CC(C3)C1)C2` [Amantadine, amantadine, reference compound], the IC50 is over 100 µM in the test with B/Shandong/7/97 (MDCK), 10 µM with A/Panama/2007/99-H3N2 and 0.1 µM in test [1].

Turning to `CC(=O)NC1C(O)CC(O)(C(=O)O)OC1CNC12CC3CC(C)(CC(C)(C3)C1)C2` (stereo not shown) [Compound 8], the IC50 was over 100 µM in the test on B/Shandong/7/97 (setting [2]), 10 µM in the test on A/Panama/2007/99-H3N2 and 10 µM in test [1]. Also, the “antiviral activity against influenza virus type B in the tested concentration range” value in the test with B/Shandong/7/97 (tested 0.01-100 μM, PRA) was “Any antiviral activity of Compound 8 has been evidenced”. The “antiviral activity relative to memantine (fold more)” value (in the test on A/Panama/2007/99-H3N2; in test [1]) was about 10 fold throughout.

The values are drawn from patent US8227425B2, “Antiviral compounds” (Therapicon Srl, priority 2007, dated 2012).
